# Laboratory results: patent US20100010082A1, “FORMULATIONS FOR TREATING EYE DISORDERS” (Aspreva International Ltd., priority 2008, published 2010)
# Read-outs that look alike come from different tables or passages of the source. Marks after values point to notes of the source that are not given here.
# How the values were obtained:
# [1] = CellCept® label / Myfortic® label; cited from earlier work
# [2] = test system: Con-A-induced dry eye in NZW rabbits; experiment: Con A induced dry eye model, Tear Break-up Test (TBUT); type: in vivo, Oryctolagus cuniculus
# [3] = test system: Scopolamine Induced Dry Eye in C57BL/6 Mice; experiment: Scopolamine induced dry eye model; type: in vivo, Mus musculus; conditions: by the end of the study (Day 13)
# Procedure: This dry eye model was based on that described in De Paiva et al., 2006, Investigative Opthalmology & Visual Science 47(7):2847-2856, incorporated herein by reference. The study consisted of seven groups of 10 female C57BL/6 mice each. Starting on Day 0, mice of Groups 1-6 were treated four times-daily (QID) with topical bilateral ocular (OU) administration of control or test articles at intervals of at least two hours. […] Mice in Group 7 served as untreated controls. On Day 3, scopolamine patches were placed on the tails of the mice and replaced every other day (Q2D) thereafter. From Days 3-12, mice were maintained in an environment with high-volume air draft (see Environmental stress section, below). […]
# For each day of administration, mice were briefly restrained. […] Following patch application, animals were monitored for any adverse reactions, including the condition of the tail and Vetwrap®. […]
# Slit Lamp Corneal Examinations. Both eyes of each animal were evaluated via a slit lamp ophthalmic examination using topically-applied fluorescein. Fluorescein dye was used to examine the surface of the cornea and scored.
# Pathology. […] A board-certified veterinary pathologist evaluated slides via light microscopy. […]
# Eyes were serially sectioned and examined. The representative corneas were scored based upon a 0-4 scale, with 0 being normal, 1 being minimal, 2 being mild, 3 being moderate, and 4 being severe. […]
# [4] = test system: Bovine Ocular Melanin Induced Uveitis in Lewis Rats
# [5] = Days 17/18, pooled average (+/−SEM) of both eyes
# [6] = Days 19/20, pooled average (+/−SEM) of both eyes
# [7] = Days 26/27, pooled average (+/−SEM) of both eyes
# [8] = Days 28/29, pooled average (+/−SEM) of both eyes
# [9] = Days −2/−1 (before immunization and dosing)
smiles,measurement,setting,value
"COc1c(C)c2c(c(O)c1C/C=C(\C)CCC(=O)OCCN1CCOCC1)C(=O)OC2 [MMF, mycophenolate mofetil]",solubility (in words),[1],only slightly soluble in water
"COc1c(C)c2c(c(O)c1C/C=C(\C)CCC(=O)[O-])C(=O)OC2.[Na+] [NaMPA, sodium mycophenolic acid]",solubility (in words),[1],highly soluble in aqueous solutions at physiological pH
C[C@@H]1C[C@H]2[C@@H]3CCC4=CC(=O)C=C[C@]4(C)[C@@]3(F)[C@@H](O)C[C@]2(C)[C@@]1(O)C(=O)CO [dexamethasone],"TBUT, post-hoc Tukey P vs. Vehicle",[2]; D6 (before Con A injection on Day 8),<0.01
same,"TBUT, post-hoc Tukey P vs. Vehicle",[2]; D9,<0.05
same,"TBUT, post-hoc Tukey P vs. Vehicle",[2]; D10,<0.01
same,"TBUT, post-hoc Tukey P vs. Vehicle",[2]; D14,<0.001
same,"TBUT, post-hoc Tukey P vs. Vehicle",[2]; D15,<0.01
same,"TBUT, post-hoc Tukey P vs. Vehicle",[2]; D16,<0.001
same,"TBUT, post-hoc Tukey P vs. Vehicle",[2]; D17,<0.001
same,weight loss relative to other groups,[3],approx. 20%
same,Hyperemia Scores (pooled),"[4]; Days 14/15, pooled average (+/−SEM) of both eyes",2.0 ±
same,Hyperemia Scores (pooled),[4]; [5],2.2 ±
same,Opacity Scores (pooled),[4]; [5],1.1 ±
same,Hyperemia Scores (pooled),[4]; [6],3.0 ± 0.0
same,Opacity Scores (pooled),[4]; [6],2.0 ± 0.0
same,Hyperemia Scores (pooled),[4]; [7],1.5 ± 0.5
same,Opacity Scores (pooled),[4]; [7],1.3 ± 0.5
same,Hyperemia Scores (pooled),[4]; [8],0.0*
same,Opacity Scores (pooled),[4]; [8],0.0*
same,Hyperemia Scores (pooled),[4]; [9],0
same,Opacity Scores (pooled),[4]; [9],0
same,weight loss during study,"[4]; rat, in vivo",significant drug-related weight loss
